For test [1], the target named is T1, Aurora kinase A (Homo sapiens) (UniProt O14965).
T1 sequence (whole entry): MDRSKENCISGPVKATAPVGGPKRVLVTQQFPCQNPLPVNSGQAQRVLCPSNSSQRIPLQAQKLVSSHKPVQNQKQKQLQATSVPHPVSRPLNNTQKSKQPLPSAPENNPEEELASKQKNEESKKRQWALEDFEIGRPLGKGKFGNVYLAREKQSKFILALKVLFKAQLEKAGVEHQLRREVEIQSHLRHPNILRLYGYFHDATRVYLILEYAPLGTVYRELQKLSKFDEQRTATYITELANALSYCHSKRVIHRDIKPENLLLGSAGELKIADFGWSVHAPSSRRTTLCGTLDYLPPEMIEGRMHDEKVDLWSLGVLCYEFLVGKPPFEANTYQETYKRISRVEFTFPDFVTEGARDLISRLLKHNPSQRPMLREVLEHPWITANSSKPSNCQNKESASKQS
Briefly: Inhibition of human Aurora A using [H-LRRASLG] as substrate at 20 uM in presence of [gamma-33P]-ATP incubated for 2 hrs by hotspot kinase assay relative to control.

The target in test [2] is T2, Aurora kinase B (Homo sapiens, UniProt Q96GD4). Briefly: Inhibition of human Aurora B using [H-LRRASLG] as substrate at 20 uM in presence of [gamma-33P]-ATP incubated for 2 hrs by hotspot kinase assay relative to control.
T2 sequence (Q96GD4 whole entry): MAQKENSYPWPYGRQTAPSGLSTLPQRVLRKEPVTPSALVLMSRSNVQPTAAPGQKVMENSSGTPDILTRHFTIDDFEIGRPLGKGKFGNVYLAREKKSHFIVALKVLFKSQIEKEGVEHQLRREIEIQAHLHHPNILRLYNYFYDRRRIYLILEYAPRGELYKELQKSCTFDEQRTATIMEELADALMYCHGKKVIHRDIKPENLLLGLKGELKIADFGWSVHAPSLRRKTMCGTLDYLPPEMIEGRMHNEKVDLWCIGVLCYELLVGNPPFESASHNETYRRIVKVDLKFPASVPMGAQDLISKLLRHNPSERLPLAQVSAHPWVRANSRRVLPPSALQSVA
Test [3] has as its target T3, Aurora kinase A (Homo sapiens, UniProt O14965).
T3 sequence (O14965 whole entry): T1 sequence (whole entry)
Briefly: Inhibition of human Aurora A using [H-LRRASLG] as substrate in presence of [gamma-33P]-ATP incubated for 2 hrs by hotspot kinase assay.

In test [4] the target is T2, Aurora kinase B. In words: Inhibition of human Aurora B using [H-LRRASLG] as substrate in presence of [gamma-33P]-ATP incubated for 2 hrs by hotspot kinase assay.
Test [5] concerns the target Calcium/calmodulin-dependent protein kinase kinase 2 (Homo sapiens) (UniProt Q96RR4). Briefly: Inhibition of human CAMKK2 using MBP as substrate at 20 uM in presence of [gamma-33P]-ATP incubated for 2 hrs by hotspot kinase assay relative to control.
The target in test [6] is MAP kinase-activated protein kinase 3 (Homo sapiens) (UniProt Q16644). Briefly: Inhibition of human MAPKAPK3 using KKLNRTLSVA as substrate at 20 uM in presence of [gamma-33P]-ATP incubated for 2 hrs by hotspot kinase assay relative to control.
MAP kinase-activated protein kinase 3 (Homo sapiens), sequence (Q16644 whole entry, looked up): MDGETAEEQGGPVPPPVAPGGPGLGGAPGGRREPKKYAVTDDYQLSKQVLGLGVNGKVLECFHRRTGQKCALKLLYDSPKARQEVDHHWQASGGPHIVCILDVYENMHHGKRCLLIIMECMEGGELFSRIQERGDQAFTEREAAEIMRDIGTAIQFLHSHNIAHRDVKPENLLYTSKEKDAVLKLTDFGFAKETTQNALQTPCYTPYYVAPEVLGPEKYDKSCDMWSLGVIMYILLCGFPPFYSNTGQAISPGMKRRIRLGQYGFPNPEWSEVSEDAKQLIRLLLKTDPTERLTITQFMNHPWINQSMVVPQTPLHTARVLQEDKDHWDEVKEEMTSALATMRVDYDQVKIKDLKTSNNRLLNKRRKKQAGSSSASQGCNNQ
Test [7] concerns the target Proto-oncogene tyrosine-protein kinase ROS (Homo sapiens) (UniProt P08922). In words: Inhibition of human ROS/ROS1 using KKKSPGEYVNIEFG as substrate at 20 uM in presence of [gamma-33P]-ATP incubated for 2 hrs by hotspot kinase assay relative to control.
Test [8] deals with Dual specificity testis-specific protein kinase 1 (Homo sapiens) (UniProt Q15569). In words: Inhibition of human TESK1 using cofilin as substrate at 20 uM in presence of [gamma-33P]-ATP incubated for 2 hrs by hotspot kinase assay relative to control.
Dual specificity testis-specific protein kinase 1 (Homo sapiens), sequence (Q15569 whole entry, looked up): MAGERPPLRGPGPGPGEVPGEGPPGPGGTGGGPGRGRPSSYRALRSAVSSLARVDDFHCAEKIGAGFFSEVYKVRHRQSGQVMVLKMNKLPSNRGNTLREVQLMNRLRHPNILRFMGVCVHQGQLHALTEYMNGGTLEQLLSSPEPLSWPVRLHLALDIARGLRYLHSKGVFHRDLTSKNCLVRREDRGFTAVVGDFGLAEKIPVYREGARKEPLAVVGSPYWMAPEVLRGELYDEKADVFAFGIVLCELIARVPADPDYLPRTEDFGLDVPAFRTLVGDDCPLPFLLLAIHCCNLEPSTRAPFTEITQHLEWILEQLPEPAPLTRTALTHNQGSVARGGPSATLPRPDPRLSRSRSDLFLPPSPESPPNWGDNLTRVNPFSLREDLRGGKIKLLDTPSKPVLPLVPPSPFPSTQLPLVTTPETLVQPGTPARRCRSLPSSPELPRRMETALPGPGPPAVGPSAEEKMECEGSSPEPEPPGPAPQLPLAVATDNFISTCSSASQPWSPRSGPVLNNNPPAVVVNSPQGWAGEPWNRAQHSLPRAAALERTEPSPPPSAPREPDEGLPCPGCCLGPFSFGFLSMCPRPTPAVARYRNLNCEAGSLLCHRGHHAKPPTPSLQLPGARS
The target in test [9] is Serine/threonine-protein kinase VRK2 (Homo sapiens) (UniProt Q86Y07). In words: Inhibition of human VRK2 using casein as substrate at 20 uM in presence of [gamma-33P]-ATP incubated for 2 hrs by hotspot kinase assay relative to control.
Serine/threonine-protein kinase VRK2 (Homo sapiens), sequence (Q86Y07 whole entry): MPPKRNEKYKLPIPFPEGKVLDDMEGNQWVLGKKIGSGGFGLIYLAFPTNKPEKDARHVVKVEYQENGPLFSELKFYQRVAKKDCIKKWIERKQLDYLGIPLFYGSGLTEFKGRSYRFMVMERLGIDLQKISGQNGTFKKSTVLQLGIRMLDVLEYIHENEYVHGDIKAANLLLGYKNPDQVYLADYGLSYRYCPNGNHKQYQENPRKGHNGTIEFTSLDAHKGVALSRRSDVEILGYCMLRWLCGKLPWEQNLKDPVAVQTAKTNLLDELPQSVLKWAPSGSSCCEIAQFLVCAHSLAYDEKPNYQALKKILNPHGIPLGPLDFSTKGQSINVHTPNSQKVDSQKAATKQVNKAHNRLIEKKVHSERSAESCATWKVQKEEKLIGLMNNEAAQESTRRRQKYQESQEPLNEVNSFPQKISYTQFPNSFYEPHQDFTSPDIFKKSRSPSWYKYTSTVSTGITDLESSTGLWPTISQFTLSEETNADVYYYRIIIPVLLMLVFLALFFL
Test [10] deals with 786-0. In words: Antitumor activity against human 786-O cells assessed as growth inhibition at 10-'5 M incubated for 48 hrs by SRB assay relative to control. Type of test: functional.
In test [11] the test system is A498. In words: Antitumor activity against human A498 cells assessed as growth inhibition at 10-'5 M incubated for 48 hrs by SRB assay relative to control. In kind it is functional. On the technique in general: In SRB staining, fixed cells bind dye roughly in proportion to their protein.
The subject of test [12] is HCT-116. Briefly: Antitumor activity against human HCT116 cells assessed as growth inhibition at 10-'5 M incubated for 48 hrs by SRB assay relative to control. Type of test: functional.
Test [13] has as its system M14. In words: Antitumor activity against human M14 cells assessed as growth inhibition at 10-'5 M incubated for 48 hrs by SRB assay relative to control. Type of test: functional.
For test [14], the system named is CAKI-1. Briefly: Antitumor activity against human CAKI-1 cells assessed as growth inhibition at 10-'5 M incubated for 48 hrs by SRB assay relative to control. Type of test: functional.
The test system of test [15] is SNB-75. Briefly: Antitumor activity against human SNB75 cells assessed as growth inhibition at 10-'5 M incubated for 48 hrs by SRB assay relative to control. Type of test: functional.
In test [16] the test system is NCI-H522. Briefly: Antitumor activity against human NCI-H522 cells assessed as growth inhibition at 10-'5 M incubated for 48 hrs by SRB assay relative to control. Type of test: functional.
Test [17] deals with HCT-15. In words: Antitumor activity against human HCT15 cells assessed as growth inhibition at 10-'5 M incubated for 48 hrs by SRB assay relative to control. In kind it is functional.
The test system of test [18] is NCI/ADR-RES. In words: Antitumor activity against human NCI-ADR-RES cells assessed as growth inhibition at 10-'5 M incubated for 48 hrs by SRB assay relative to control. In kind it is functional.
The subject of test [19] is UO-31. In words: Antitumor activity against human UO31 cells assessed as growth inhibition at 10-'5 M incubated for 48 hrs by SRB assay relative to control. Type of test: functional.
In test [20] the test system is MDA-MB-231. In words: Antitumor activity against human MDA-MB-231 cells assessed as growth inhibition at 10-'5 M incubated for 48 hrs by SRB assay relative to control. Type of test: functional.
The subject of test [21] is Hs-578T. In words: Antitumor activity against human Hs 578T cells assessed as growth inhibition at 10-'5 M incubated for 48 hrs by SRB assay relative to control. In kind it is functional.
The subject of test [22] is KM12. Briefly: Antitumor activity against human KM12 cells assessed as growth inhibition at 10-'5 M incubated for 48 hrs by SRB assay relative to control. Type of test: functional.
In test [23] the test system is SK-MEL-5. Briefly: Antitumor activity against human SK-MEL-5 cells assessed as growth inhibition at 10-'5 M incubated for 48 hrs by SRB assay relative to control. In kind it is functional.
For test [24], the system named is UACC-62. In words: Antitumor activity against human UACC62 cells assessed as growth inhibition at 10-'5 M incubated for 48 hrs by SRB assay relative to control. Type of test: functional.
Test [25] deals with MCF7. Briefly: Antitumor activity against human MCF7 cells assessed as growth inhibition at 10-'5 M incubated for 48 hrs by SRB assay relative to control. In kind it is functional.
The subject of test [26] is T47D. In words: Antitumor activity against human T47D cells assessed as growth inhibition at 10-'5 M incubated for 48 hrs by SRB assay relative to control. Type of test: functional.
Test [27] relates to MOLT-4. In words: Antitumor activity against human MOLT4 cells assessed as growth inhibition at 10-'5 M incubated for 48 hrs by SRB assay relative to control. Type of test: functional.
The subject of test [28] is HOP-62. In words: Antitumor activity against human HOP62 cells assessed as growth inhibition at 10-'5 M incubated for 48 hrs by SRB assay relative to control. In kind it is functional.
The subject of test [29] is IGROV-1. Briefly: Antitumor activity against human IGROV1 cells assessed as growth inhibition at 10-'5 M incubated for 48 hrs by SRB assay relative to control. Type of test: functional.
For test [30], the system named is BT-549. In words: Antitumor activity against human BT549 cells assessed as growth inhibition at 10-'5 M incubated for 48 hrs by SRB assay relative to control. In kind it is functional.
In test [31] the test system is EKVX. In words: Antitumor activity against human EKVX cells assessed as growth inhibition at 10-'5 M incubated for 48 hrs by SRB assay relative to control. Type of test: functional.
For test [32], the species on record is Homo sapiens. In words: Selectivity ratio of IC50 for inhibition of human AURKB to IC50 for inhibition of human AURKA.

Proto-oncogene tyrosine-protein kinase ROS (Homo sapiens), sequence (P08922 whole entry): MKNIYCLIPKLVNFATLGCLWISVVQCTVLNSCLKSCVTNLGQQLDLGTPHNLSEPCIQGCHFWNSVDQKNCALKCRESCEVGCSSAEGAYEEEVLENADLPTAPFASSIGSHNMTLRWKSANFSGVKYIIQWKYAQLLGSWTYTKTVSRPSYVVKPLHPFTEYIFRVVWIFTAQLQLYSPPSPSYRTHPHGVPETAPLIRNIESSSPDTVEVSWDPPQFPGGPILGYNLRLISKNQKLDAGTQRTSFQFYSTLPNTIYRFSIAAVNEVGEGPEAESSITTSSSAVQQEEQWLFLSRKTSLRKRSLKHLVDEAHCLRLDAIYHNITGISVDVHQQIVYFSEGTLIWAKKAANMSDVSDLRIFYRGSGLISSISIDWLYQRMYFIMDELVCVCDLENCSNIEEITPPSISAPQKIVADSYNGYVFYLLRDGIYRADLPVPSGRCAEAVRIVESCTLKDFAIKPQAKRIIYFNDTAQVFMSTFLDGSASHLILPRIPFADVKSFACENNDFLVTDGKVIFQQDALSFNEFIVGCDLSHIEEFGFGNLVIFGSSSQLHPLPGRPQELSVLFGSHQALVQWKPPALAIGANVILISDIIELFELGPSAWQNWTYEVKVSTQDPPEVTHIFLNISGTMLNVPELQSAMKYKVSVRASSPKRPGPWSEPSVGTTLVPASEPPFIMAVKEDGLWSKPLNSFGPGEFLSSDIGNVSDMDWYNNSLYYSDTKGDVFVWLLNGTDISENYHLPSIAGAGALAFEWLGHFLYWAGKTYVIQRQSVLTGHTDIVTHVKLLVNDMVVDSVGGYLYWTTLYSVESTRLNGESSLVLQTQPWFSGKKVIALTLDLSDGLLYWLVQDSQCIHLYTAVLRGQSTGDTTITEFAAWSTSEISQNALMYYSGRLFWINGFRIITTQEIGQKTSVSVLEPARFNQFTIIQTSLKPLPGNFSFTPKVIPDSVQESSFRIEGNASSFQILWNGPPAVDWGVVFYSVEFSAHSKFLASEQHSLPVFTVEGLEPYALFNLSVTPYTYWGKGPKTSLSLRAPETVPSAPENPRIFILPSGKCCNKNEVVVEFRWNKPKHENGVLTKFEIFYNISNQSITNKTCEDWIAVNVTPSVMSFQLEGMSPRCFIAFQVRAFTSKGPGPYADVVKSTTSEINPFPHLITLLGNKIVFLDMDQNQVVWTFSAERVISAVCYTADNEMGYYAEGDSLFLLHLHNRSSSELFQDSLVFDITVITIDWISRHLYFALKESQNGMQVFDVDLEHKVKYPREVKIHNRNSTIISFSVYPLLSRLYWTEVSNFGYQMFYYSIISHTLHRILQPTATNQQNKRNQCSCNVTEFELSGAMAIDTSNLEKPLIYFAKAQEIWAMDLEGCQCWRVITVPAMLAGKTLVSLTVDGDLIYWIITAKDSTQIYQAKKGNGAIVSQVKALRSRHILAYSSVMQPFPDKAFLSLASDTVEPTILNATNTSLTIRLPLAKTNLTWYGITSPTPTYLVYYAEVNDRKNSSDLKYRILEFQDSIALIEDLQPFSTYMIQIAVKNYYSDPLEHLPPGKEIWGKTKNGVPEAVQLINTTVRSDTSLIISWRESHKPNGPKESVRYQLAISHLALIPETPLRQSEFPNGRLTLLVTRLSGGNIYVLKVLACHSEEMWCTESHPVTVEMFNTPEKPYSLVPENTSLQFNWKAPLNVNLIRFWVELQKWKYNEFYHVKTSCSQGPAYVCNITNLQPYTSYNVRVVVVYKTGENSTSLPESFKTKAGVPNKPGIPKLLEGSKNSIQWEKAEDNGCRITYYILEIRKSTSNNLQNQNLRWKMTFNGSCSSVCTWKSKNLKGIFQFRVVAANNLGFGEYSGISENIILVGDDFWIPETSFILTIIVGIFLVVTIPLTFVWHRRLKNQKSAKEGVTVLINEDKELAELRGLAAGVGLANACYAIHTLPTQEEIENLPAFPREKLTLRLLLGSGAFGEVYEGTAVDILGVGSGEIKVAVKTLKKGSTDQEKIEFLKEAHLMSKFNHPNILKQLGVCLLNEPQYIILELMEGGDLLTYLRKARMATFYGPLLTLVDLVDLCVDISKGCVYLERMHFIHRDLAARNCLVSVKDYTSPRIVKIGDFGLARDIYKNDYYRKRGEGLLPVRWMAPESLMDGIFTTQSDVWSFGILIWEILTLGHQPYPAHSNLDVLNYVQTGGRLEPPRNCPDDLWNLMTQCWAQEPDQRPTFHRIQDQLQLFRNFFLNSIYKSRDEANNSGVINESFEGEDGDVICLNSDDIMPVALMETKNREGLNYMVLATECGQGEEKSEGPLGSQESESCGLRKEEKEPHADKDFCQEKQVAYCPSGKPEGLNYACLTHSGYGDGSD
Calcium/calmodulin-dependent protein kinase kinase 2 (Homo sapiens), sequence (Q96RR4 2-588 limits assumed): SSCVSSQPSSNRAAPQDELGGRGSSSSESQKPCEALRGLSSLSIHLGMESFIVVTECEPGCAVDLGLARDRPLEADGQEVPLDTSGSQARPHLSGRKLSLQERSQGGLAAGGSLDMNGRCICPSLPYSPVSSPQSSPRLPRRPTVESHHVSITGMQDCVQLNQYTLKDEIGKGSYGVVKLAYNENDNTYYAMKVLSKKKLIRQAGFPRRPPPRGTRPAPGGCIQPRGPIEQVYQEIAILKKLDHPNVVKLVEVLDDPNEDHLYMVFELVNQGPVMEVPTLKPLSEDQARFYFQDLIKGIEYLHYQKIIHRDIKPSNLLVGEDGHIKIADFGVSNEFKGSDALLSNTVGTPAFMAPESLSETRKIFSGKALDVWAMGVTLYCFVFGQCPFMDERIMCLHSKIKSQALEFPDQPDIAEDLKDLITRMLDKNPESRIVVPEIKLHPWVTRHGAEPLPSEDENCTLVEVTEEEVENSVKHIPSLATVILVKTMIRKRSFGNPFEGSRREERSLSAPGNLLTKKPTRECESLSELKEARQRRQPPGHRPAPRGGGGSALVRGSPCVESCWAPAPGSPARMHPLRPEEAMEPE

For the compound `CCOC(=O)c1cnc2ccc(C)cc2c1Nc1cccc(S(=O)(=O)NC)c1`, the inhibition – broadly, the relative decrease from the control value, in per cent – in [1] was found to be 6.43%; in [2], 18.7%.
Turning to `CCOC(=O)c1cnc2cc(Cl)cc(Cl)c2c1Nc1cccc(S(N)(=O)=O)c1`, the inhibition in test [1] was 61.3%; in test [2] it was 71.8%; in [5], 33.7%; in [6] it was 3.1%; in test [7] it was 20.1%; in [8] it was 4.01%. In addition, the inhibition in [9] was determined as 31.8%. For the same compound, the IC50 (as a rule, the concentration that inhibits the measured activity by half) worked out at 7.64 µM in test [3] and 6.89 µM in test [4]. Also, the “growth inhibition (GI)” value is on record as >50% in test [10], “>=20%” in test [11], >50% in [12] and “>=20%” in test [13].
Turning to `CCOC(=O)c1cnc2ccc(Br)cc2c1Nc1cccc(S(N)(=O)=O)c1`, the figures for the inhibition in [1] and in test [2] were 26.9% and 87.4%, respectively. For the same compound, the IC50 in [4] was found to be 1.62 µM. The “growth inhibition (GI)” value in [11], in [14] and in test [15] was “>=20%” each time.
In the case of `CCOC(=O)c1cnc2ccc(Br)cc2c1Nc1cccc(S(=O)(=O)NC)c1`, the inhibition in test [1] turned out to be 10.7%; in test [2], 21.4%. For the same compound, the “growth inhibition (GI)” value in [16], in test [17], in test [18], in [11] and in test [19] was “>=20%” in each case.
For the compound `CCOC(=O)c1cnc2ccccc2c1Nc1cccc(S(N)(=O)=O)c1`, the inhibition was determined as 64.3% in [1] and 60.9% in [2]. Besides, the IC50 in [3] was 16.6 µM; in [4] it was 12.5 µM. The “growth inhibition (GI)” value in [14], in [19] and in [15] was “>=20%” throughout.
For `CCOC(=O)c1cnc2ccc(Br)cc2c1Nc1cccc(NS(C)(=O)=O)c1`, the inhibition in test [1] came to 66%; in [2], 91.6%. The IC50 in [3] is 1.77 µM; in test [4] it was 1.35 µM. The “growth inhibition (GI)” value in test [11] and in [19] was “>=20%” in each case.
Turning to `CCOC(=O)c1cnc2ccccc2c1Nc1cccc(S(=O)(=O)NC)c1`, the “growth inhibition (GI)” value in test [20], in [21], in [22], in test [23], in test [24] and in test [11] was “>=20%” throughout. For the same compound, the “growth inhibition (GI)” value in test [14], in [19], in test [25], in test [26], in [15] and in test [27] was “>=20%” in each case. Further, the “growth inhibition (GI)” value in test [28] and in [29] was “>=20%” throughout. The figures for the inhibition in test [1] and in test [2] were 6.15% and 33.7%, respectively.
On to `CCOC(=O)c1cnc2ccccc2c1Nc1cccc(NS(C)(=O)=O)c1`, for which the inhibition in test [1] worked out at 71.9%; in [2] it was 56.6%. The figures for the IC50 in test [3] and in test [4] were 13.4 µM and 13.2 µM, respectively. For the same compound, the “growth inhibition (GI)” value in test [10] is “>=20%”; in test [12], >50%; in test [13], >50%.
Turning to `CCOC(=O)c1cnc2ccc(C)cc2c1Nc1cccc(S(N)(=O)=O)c1`, the inhibition in test [1] turned out to be 14.9%; in test [2], 57.7%. Moreover, the IC50 in [4] was 8.33 µM. Besides, the results for the “growth inhibition (GI)” value in test [12] and in test [30] were >50% and “>=20%”, respectively.
On to `CCOC(=O)c1cnc2ccc(C)cc2c1Nc1cccc(NS(C)(=O)=O)c1`, for which the “growth inhibition (GI)” value in test [31] is “>=20%”; in [22] it was >50%. In addition, the inhibition in test [1] came out at 64.4%; in [2], 81%. Moreover, the IC50 in [3] is 0.98 µM; in [4], 2.99 µM. In addition, in test [32], the Ratio IC50 was 3.
